Data taken from patent publication US8106055B2, “Substituted amide compounds” (Gruenenthal GmbH, priority 2007, dated 2012).
Like-named read-outs stand apart in the source and are kept apart here.

Experiments:
human μ opiate receptor = molecular target: T1, human μ opiate receptor (Homo sapiens, UniProt P35372); test: Affinity for the human μ opiate receptor ([3H]-naloxone displacement, CHO-K1 receptor membrane preparation, SPA); assay type: binding; conditions: test concentration of 1 μM
T1 construct: purchased PerkinElmer Life Sciences, Zaventem, Belgium RB-HOM; host or cells: CHO-K1 cells (membrane preparation)
Method: Binding data of the compounds on the μ opioid receptor and data on the inhibition of reuptake of serotonin (5-HT) are given in Table 1. The data for the μ receptor were measured at a test concentration of 1 μM, and those for the serotonin reuptake at 10 μM. The values are stated in % inhibition.
Investigation of the Activity of the Compounds of the Invention Method for Determining the Affinity for the Human μ Opiate Receptor
The receptor affinity for the human p opiate receptor is determined in a homogeneous set-up in microtitre plates. For this, dilution series of the substances to be tested are incubated with a receptor membrane preparation (15-40 μg of protein/250 μl of incubation batch) of CHO-K1 cells which express the human p opiate receptor (RB-HOM receptor membrane preparation from PerkinElmer Life Sciences, Zaventem, Belgium) in the presence of 1 nmol/l of the radioactive ligand [^3H]-naloxone (NET719, PerkinElmer Life Sciences, Zaventem, Belgium) and 1 mg of WGA-SPA-Beads (wheat germ agglutinin SPA beads from Amersham/Pharmacia, Freiburg, Germany) in a total volume of 250 μl for 90 minutes at room temperature. 50 mmol/l of Tris-HCl supplemented with 0.06% of bovine serum albumin is used as the incubation buffer. 100 μmol/l of naloxone are additionally added for determination of the non-specific binding. After the end of the ninety-minute incubation time, the microtitre plates are centrifuged for 20 minutes at 1,000 g and the radioactivity is measured in a β-counter (Microbeta-Trilux, PerkinElmer Wallac, Freiburg, Germany). The percentage displacement of the radioactive ligand from its binding to the human p opiate receptor is determined at a concentration of the test substances of 1 μmol/l and stated as the percentage inhibition of the specific binding. Starting from the percentage displacement by various concentrations of the test substances, IC50 inhibitory concentrations which cause a 50 percent displacement of the radioactive ligand are calculated. By conversion by means of the Cheng-Prusoff relationship, Ki values for the test substances are obtained.

[1] = molecular target: T2, human bradykinin 1 receptor (B1R) (Homo sapiens, UniProt P46663); test: Functional investigation on the human bradykinin 1 receptor (B1R), Ca2+ FLIPR assay in CHO K1 hB1R cells; assay type: cell-based; conditions: test substance 10 μM; for B1R Ant. h [10 μM] % Inhibition: B1R antagonism human; for inhibition at 10 µM: CHO-K1, B1R antagonism human, read-out: B1R Ant. h [10 μM] % Inhibition
T2 construct: expressed in transfected cells; host or cells: CHO K1 cells
T2 sequence (P46663 1-353): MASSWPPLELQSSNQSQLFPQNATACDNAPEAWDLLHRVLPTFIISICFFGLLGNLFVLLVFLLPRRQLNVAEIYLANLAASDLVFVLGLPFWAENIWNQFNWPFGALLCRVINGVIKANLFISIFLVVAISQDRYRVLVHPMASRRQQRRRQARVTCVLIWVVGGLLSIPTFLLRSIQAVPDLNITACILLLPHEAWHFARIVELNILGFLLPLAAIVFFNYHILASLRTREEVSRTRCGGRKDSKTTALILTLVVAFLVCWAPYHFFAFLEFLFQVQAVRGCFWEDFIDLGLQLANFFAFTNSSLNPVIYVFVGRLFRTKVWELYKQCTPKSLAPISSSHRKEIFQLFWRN
Source text: Functional Investigation on the Human Bradykinin 1 Receptor (B1R)
The agonistic or antagonistic action of substances can be determined on the bradykinin 1 receptor (B1R) of the human species and rats with the following assay. In accordance with this assay, the Ca^2+ inflow through the channel is quantified with the aid of a Ca^2=-sensitive dyestuff (type Fluo-4, Molecular Probes Europe BV, Leiden, Holland) in a fluorescent imaging plate reader (FLIPR, Molecular Devices, Sunnyvale, USA).
Chinese hamster ovary cells (CHO K1 cells) transfected stably with the human B1R gene (hB1R cells) or the B1R gene of the rat (rB1R cells) are used. For functional studies, these cells are plated out on black 96-well plates with a clear base (BD Biosciences, Heidelberg, Germany or Greiner, Frickenhausen, Germany) in a density of 20,000-35,000 cells/well. The cells are left overnight at 37° C. and 5% CO2 in culture medium (hB1R cells: Nutrient Mixture Ham's F12, Gibco Invitrogen GmbH, Karlsruhe, Germany or DMEM, Sigma-Aldrich, Taufkirchen, Germany; rB1R cells: D-MEM/F12, Gibco Invitrogen GmbH, Karlsruhe, Germany) with 10 vol. % of FBS (foetal bovine serum, Gibco Invitrogen GmbH, Karlsruhe, Germany or PAN Biotech GmbH, Aidenbach, Germany).
On the following day, the cells are loaded for 60 min at 37° C. with 2.13 μM Fluo-4 (Molecular Probes Europe BV, Leiden, The Netherlands) in HBSS buffer (Hank's buffered saline solution, Gibco Invitrogen GmbH, Karlsruhe, Germany) with 2.5 mM probenecid (Sigma-Aldrich, Taufkirchen, Germany) and 10 mM HEPES (Sigma-Aldrich, Taufkirchen, Germany). The plates are then washed 2× with HBSS buffer, and HBSS buffer which additionally contains 0.1% of BSA (bovine serum albumin; Sigma-Aldrich, Taufkirchen, Germany), 5.6 mM glucose and 0.05% of gelatine (Merck KGaA, Darmstadt, Germany) is added. After a further incubation of 20 minutes at room temperature, the plates are inserted into the FLIPR for the Ca^2+ measurement.
Alternatively, the plates are washed with buffer A (15 mM HEPES, 80 mM NaCl, 5 mM KCl, 1.2 mM CaCl2, 0.7 mM MgSO4, 2 g/l glucose, 2.5 mM probenecid), buffer A is added and the plates are loaded with 2.5 μM Fluo-4 and 0.025% of Pluronic F127 (Sigma-Aldrich, Taufkirchen, Germany). Thereafter, the cells are washed 2× with buffer A and incubated for 30 minutes with buffer A, which additionally contains 0.05% of BSA and 0.05% of gelatine, at room temperature and thereafter inserted into the FLIPR for the Ca^2+ measurement.
The Ca^2+-dependent fluorescence is measured before and after addition of substances (λex=488 nm, λem=540 nm). Quantification is by measurement of the highest fluorescence intensity (FC, fluorescence counts) over time.
The FLIPR protocol consists of 2 additions of substance. Test substances (10 μM) are first pipetted on to the cells and the Ca^2+ inflow is compared with the control (hB1R: Lys-Des-Arg^9-bradykinin >=50 nM; rB1R: Des-Arg^9-bradykinin 10 μM). This gives the information in % activation based on the Ca^2+ signal after addition of Lys-Des-Arg^9-bradykinin (>=50 nM) or Des-Arg^9-bradykinin (10 μM).
After incubation for 10-20 minutes, Lys-Des-Arg^9-bradykinin (hB1R) or Des-Arg^9-bradykinin (rB1R) is applied in the concentration of the EC80 and the inflow of Ca^2+ is likewise determined.
Antagonists lead to a suppression of the Ca^2+ inflow. % inhibition compared with the maximum achievable inhibition is calculated.
To determine the IC50 value, the substances are added in various concentrations. Duplicate or triplicate determinations (n=2 or n=3) are carried out, and these are repeated in at least one further independent experiment (N>=2).
Preferably, the compounds have a B1R antagonistic action on the human receptor and/or on the rat receptor. The following data are given by way of example in the following table: (In this, “B1R Ant. h” represents “B1R antagonism human” and “B1R Ant. r” represents “B1R antagonism rat”)

T1 sequence (P35372 whole entry): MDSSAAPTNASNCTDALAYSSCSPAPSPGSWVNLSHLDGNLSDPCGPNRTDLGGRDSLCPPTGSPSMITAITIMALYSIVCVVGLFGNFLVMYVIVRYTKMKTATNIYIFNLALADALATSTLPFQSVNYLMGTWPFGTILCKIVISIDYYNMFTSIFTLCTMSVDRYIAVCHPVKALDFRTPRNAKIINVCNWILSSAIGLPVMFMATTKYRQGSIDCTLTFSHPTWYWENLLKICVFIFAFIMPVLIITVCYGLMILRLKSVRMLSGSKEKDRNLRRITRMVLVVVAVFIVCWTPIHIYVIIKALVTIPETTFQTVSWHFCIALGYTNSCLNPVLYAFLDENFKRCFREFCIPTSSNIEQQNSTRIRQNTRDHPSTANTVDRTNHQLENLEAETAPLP

SMILES	μ (binding on the μ opioid receptor, % inhibition) (human μ opiate receptor)	B1R Ant. h [10 μM] % Inhibition ([1]; Ca2+ FLIPR, CHO K1 hB1R cells)	also measured
CN(C)C(c1ccccc1)C1CCC(NC(=O)COC2CCN(S(=O)(=O)c3ccccc3)C2)CC1 (stereo not drawn) [Example 595]	51%	15%	–
CN(C)C(c1ccccc1)C1CCC(NC(=O)COC2CCN(S(=O)(=O)c3ccc(Cl)cc3Cl)C2)CC1 (stereo not drawn) [Example 596]	84%	32%	–
COc1ccc(S(=O)(=O)N(C)CCOCC(=O)NC2CCC(C(c3ccccc3)N(C)C)CC2)cc1 (stereo not drawn) [Example 590]	75%	−1%	–
CN(C)C(c1ccccc1)C1CCC(NC(=O)COC2CCN(S(=O)(=O)c3ccc(F)cc3)C2)CC1 (stereo not drawn) [Example 591]	93%	0%	–
COc1ccc(-c2noc(C(=O)NCC(=O)NC3CCC(C(CCc4ccccc4)N(C)C)CC3)n2)cc1OC (stereo not drawn) [Example 794, 3-(3,4-dimethoxy-phenyl)-[1,2,4]oxadiazole-5-carboxylic acid {[4-(1-dimethylamino-3-phenyl-propyl)-cyclohexylcarbamoyl]-methyl}-amide]	–	–	inhibition at 10 µM ([1]; Ca2+ FLIPR, CHO K1 hB1R cells): 1%
CN(C)C(c1ccccc1)C1CCC(NC(=O)COCCN(C)S(=O)(=O)c2ccc(OC(F)(F)F)cc2)CC1 (stereo not drawn) [Example 594]	94%	20%	–
CN(C)C(c1ccccc1)C1CCC(NC(=O)COCCN(C)S(=O)(=O)c2ccc(Cl)cc2)CC1 (stereo not drawn) [Example 589]	25%	28%	–
CN(C)C(c1ccccc1)C1CCC(NC(=O)COCCN(C)S(=O)(=O)c2ccccc2)CC1 (stereo not drawn) [Example 588]	29%	6%	–
Cc1ccc(F)cc1-c1noc(C(=O)NCC(=O)NC2CCC(C(CCc3ccccc3)N(C)C)CC2)n1 (stereo not drawn) [Example 796, 3-(5-fluoro-2-methyl-phenyl)-[1,2,4]oxadiazole-5-carboxylic acid {[4-(1-dimethylamino-3-phenyl-propyl)-cyclohexylcarbamoyl]-methyl}-amide]	–	–	inhibition at 10 µM ([1]; Ca2+ FLIPR, CHO K1 hB1R cells): 94%
CN(C)C(c1ccccc1)C1CCC(NC(=O)COCCN(C)S(=O)(=O)c2cccc(C(F)(F)F)c2)CC1 (stereo not drawn) [Example 593]	91%	56%	–
CN(C)C(CCc1ccccc1)C1CCC(NC(=O)CNC(=O)c2nc(-c3ccc(Cl)cc3Cl)no2)CC1 (stereo not drawn) [Example 795, 3-(2,4-dichloro-phenyl)-[1,2,4]oxadiazole-5-carboxylic acid {[4-(1-dimethylamino-3-phenyl-propyl)-cyclohexylcarbamoyl]-methyl}-amide]	–	–	inhibition at 10 µM ([1]; Ca2+ FLIPR, CHO K1 hB1R cells): 103%
CN(C)C(c1ccccc1)C1CCC(NC(=O)COCCN(C)S(=O)(=O)c2ccc(F)cc2)CC1 (stereo not drawn) [Example 585]	41%	−10%	–
Cc1ccc(S(=O)(=O)N2CCC(OCC(=O)NC3CCC(C(c4ccccc4)N(C)C)CC3)C2)cc1 (stereo not drawn) [Example 123, N-(4-((dimethylamino)(phenyl)methyl)cyclohexyl)-2-(1-tosylpyrrolidin-3-yloxy)acetamide]	–	–	inhibition at 1 µM (human μ opiate receptor; read-out: μ (binding on the μ opioid receptor, % inhibition)): 27%; inhibition at 10 µM ([1]; Ca2+ FLIPR, CHO K1 hB1R cells): -6%
CC(Oc1ccccc1)C(=O)NC1CCC(C(c2ccc(F)cc2)N(C)C)CC1 (stereo not drawn) [Example 516]	40%	–	–
CN(C)C(CCc1ccccc1)C1CCC(NC(=O)CCNC(=O)c2nc(-c3cccs3)no2)CC1 (stereo not drawn) [Example 797, 3-thiophen-2-yl-[1,2,4]oxadiazole-5-carboxylic acid {2-[4-(1-dimethylamino-3-phenyl-propyl)-cyclohexylcarbamoyl]-ethyl}-amide]	–	–	inhibition at 10 µM ([1]; % inhibition compared with the maximum achievable inhibition): 0%
COc1ccc(S(=O)(=O)N(C)CCOCC(=O)NC2CCC(C(c3ccccc3)N(C)C)CC2)cc1OC (stereo not drawn) [Example 592]	83%	1%	–
